Results on 45 compounds are retold here after patent publication US11110091B2, “Modulators of toll-like receptors” (Gilead Sciences, Inc., priority 2008, dated 2021).

The subject of the assay is human Peripheral Blood Mononuclear Cell (PMBC). The assay can be described thus: PBMC assay: cytokine (IFN-α) stimulation at 24 hours. The assay is classed as cell-based. The note with it: lowest concentration stimulating IFN-α production at least 3-fold over background, Luminex, read-out: IFN MEC. How it is done:
Assays were conducted to determine cytokine stimulation at 24 hours from human Peripheral Blood Mononuclear Cell (PMBC) using the compounds of the present invention. The assays were run in duplicate, with 8-point, half-log dilution curves. The compounds of the present invention were diluted from 10 mM DMSO solution. Cell supernatants are assayed directly for IFNα and 1:10 dilution for TNFα. The assays were performed in a similar fashion as described in Bioorg. […] Specifically, cryo-preserved PBMCs were thawed and seeded 96 well plates with 750,000 cells/well in 190 μL/well cell media. The PBMCs were then incubated for 1 hour at 37° C. at 5% CO2. Then, the compounds of the present invention were added in 10 μL cell media at 8 point, half-log dilution titration. The plates were incubated at 37° C. and 5% CO2 for 24 hours and then spinned at 1200 rpm for 10 min, which was followed by collecting supernatant and storing the same at −80° C. Cytokine secretion was assayed with Luminex and Upstate multi-plex kits, using a Luminex analysis instrument. The IFN-α MEC value for a compound was the lowest concentration at which the compound stimulated IFN-α production at least 3-fold over the background as determined using the assay method above.
Turning to `CCC[C@@H](C)Oc1nc(N)c2c(n1)N(Cc1cccc(CN3CCCC3)c1)CC(=O)N2` [Example 58], the minimal effective concentration was more than 0.03 µM.

As to `Nc1nc(OCC2CCCCC2)nc2c1NC(=O)CN2Cc1cccc(CN2CCCC2)c1` [Example 13], the minimal effective concentration was more than 0.03 µM.

On to `Nc1nc(OCC2CCOCC2)nc2c1NC(=O)CN2Cc1ccc(C(F)(F)F)nc1` [Example 118], for which the minimal effective concentration was more than 0.03 µM.

Take `COCCOc1nc(N)c2c(n1)N(Cc1ccc(-c3ccc(CN4CCCC4)cc3)cc1)CC(=O)N2` [Example 98]: the minimal effective concentration was not above 0.03 µM.

In the case of `CCCCOc1nc(N)c2[nH]c(=O)c(=O)n(Cc3ccc(-c4ccc(CN5CCCC5)cc4)cc3)c2n1` [Example 101], the minimal effective concentration is more than 0.03 µM.

Take `CC(C)(C)COc1nc(N)c2c(n1)N(Cc1cccc(CN3CCCC3)c1)CC(=O)N2` [Example 14]: the minimal effective concentration was more than 0.03 µM.

`CCCCOc1nc(N)c2c(n1)N(CCC1CCN(Cc3ccccc3)CC1)CC(=O)N2` [Example 108]: the minimal effective concentration is more than 0.03 µM.

As to `Nc1nc(OCCC2CC2)nc2c1NC(=O)CN2Cc1cccc(CN2CCCC2)c1` [Example 9, 4-amino-2-{2′″-(cyclopropyl)ethoxy}-8-[3′-(pyrrolidin-1″-ylmethyl)-benzyl]-5,6,7,8-tetrahydropteridin-6-one], the minimal effective concentration is not above 0.03 µM.

As to `CC(C)COc1nc(N)c2c(n1)N(Cc1cccc(CN3CCCC3)c1)CC(=O)N2` [Example 10], the minimal effective concentration was more than 0.03 µM.

On to `CCCCOc1nc(N)c2c(n1)N(Cc1ccc3c(c1)CN(CC1CC1)CC3)CC(=O)N2` [Example 70], for which the minimal effective concentration is not above 0.03 µM.

For `Nc1nc(NCc2ccco2)nc2c1NC(=O)CN2Cc1cccc(CN2CCCC2)c1` [Example 38], the minimal effective concentration was not above 0.03 µM.

For the compound `CC(C)CCOc1nc(N)c2c(n1)N(Cc1cccc(CN3CCCC3)c1)CC(=O)N2` [Example 11], the minimal effective concentration is more than 0.03 µM.

Take `CCC[C@H](C)Oc1nc(N)c2c(n1)N(Cc1ccc(C)nc1)CC(=O)N2` [Example 116]: the minimal effective concentration was more than 0.03 µM.

With `CCCCOc1nc(N)c2c(n1)N(Cc1ccc3c(c1)CN(CC1CCC1)CC3)CC(=O)N2` [Example 72], the minimal effective concentration was not above 0.03 µM.

On to `COCCNc1nc(N)c2c(n1)N(Cc1cccc(CN3CCCC3)c1)CC(=O)N2` [Example 33], for which the minimal effective concentration was more than 0.03 µM.

Consider `CCCCOc1nc(N)c2c(n1)N(Cc1ccc(CN3CCCC3)cc1)CC(=O)N2` [Example 4, 4-amino-2-n-butoxy-8-[4′-(pyrrolidin-1″-ylmethyl)-benzyl]-5,6,7,8-tetrahydropteridin-6-one], for which the minimal effective concentration is not above 0.03 µM.

In the case of `Nc1nc(OCCCC(F)(F)F)nc2c1NC(=O)CN2Cc1cccc(CN2CCCC2)c1` [Example 56], the minimal effective concentration was not above 0.03 µM.

For the compound `COP(=O)(CCOc1nc(N)c2c(n1)N(Cc1cccc(CN3CCCC3)c1)CC(=O)N2)OC` [Example 18], the minimal effective concentration is more than 0.03 µM.

Turning to `Nc1nc(OCC2CCCO2)nc2c1NC(=O)CN2Cc1ccnc(N2CCOCC2)c1` (stereo not drawn) [Example 67], the minimal effective concentration is more than 0.03 µM.

For the compound `COC[C@@H](C)Oc1nc(N)c2c(n1)N(Cc1cccc(CN3CCCC3)c1)CC(=O)N2` [Example 88], the minimal effective concentration was not above 0.03 µM.

As to `CCC[C@H](C)Oc1nc(N)c2c(n1)N(Cc1ccc(CN3CCCC3)cc1)CC(=O)N2` [Example 61], the minimal effective concentration was not above 0.03 µM.

Turning to `Nc1nc(N2CCCC2)nc2c1NC(=O)CN2Cc1cccc(CN2CCCC2)c1` [Example 43], the minimal effective concentration was not above 0.03 µM.

With `CCCCOc1nc(N)c2[nH]c(=O)c(=O)n(Cc3ccccc3CN3CCCC3)c2n1` [Example 89], the minimal effective concentration was not above 0.03 µM.

As for `CCCN(C)C(=O)c1nc(N)c2[nH]c(=O)c(=O)n(Cc3cccc(CN4CCCC4)c3)c2n1` [Example 92], the minimal effective concentration is more than 0.03 µM.

As to `CCCCOc1nc(N)c2c(n1)N(C(C)c1ccc(CN3CCCC3)cc1)CC(=O)N2` (stereo not drawn) [Example 74], the minimal effective concentration is more than 0.03 µM.

For the compound `Nc1nc(OCCOc2ccccc2)nc2c1NC(=O)CN2Cc1cccc(CN2CCCC2)c1` [Example 23], the minimal effective concentration was more than 0.03 µM.

Regarding `COC[C@H](C)Oc1nc(N)c2c(n1)N(Cc1cccc(CN3CCCC3)c1)CC(=O)N2` [Example 87], the minimal effective concentration is not above 0.03 µM.

In the case of `Nc1nc(OCCN2CCCC2=O)nc2c1NC(=O)CN2Cc1cccc(CN2CCCC2)c1` [Example 22], the minimal effective concentration is more than 0.03 µM.

Regarding `CCCCOc1nc(N)c2c(n1)N(Cc1cccc(CN3CCCC3)c1)C(C)C(=O)N2` (stereo not drawn) [Example 64], the minimal effective concentration was more than 0.03 µM.

Take `CCCCOc1nc(N)c2[nH]c(=O)c(=O)n(Cc3ccc(C)nc3)c2n1` [Example 112]: the minimal effective concentration was more than 0.03 µM.

`CCCCOc1nc(N)c2c(n1)N(Cc1cccc(CN3C(C)CCC3C)c1)CC(=O)N2` (stereo not drawn) [Example 102]: the minimal effective concentration is not above 0.03 µM.

`Nc1nc(OCCC(F)(F)F)nc2c1NC(=O)CN2Cc1cccc(CN2CCCC2)c1` [Example 55]: the minimal effective concentration was not above 0.03 µM.

For the compound `CCCCOc1nc(N)c2c(n1)N(Cc1cccc(CN3CCN(C)CC3)c1)CC(=O)N2` [Example 79], the minimal effective concentration was not above 0.03 µM.

Take `CCCCOc1nc(N)c2c(n1)N(Cc1ccc3c(c1)CN(CC)CC3)CC(=O)N2` [Example 52]: the minimal effective concentration is not above 0.03 µM.

Regarding `COC[C@H](C)Nc1nc(N)c2c(n1)N(Cc1cccc(CN3CCCC3)c1)CC(=O)N2` [Example 37], the minimal effective concentration is not above 0.03 µM.

Turning to `CCCCOc1nc(N)c2c(n1)N(Cc1ccc3c(c1)CNCC3)CC(=O)N2` [Example 51], the minimal effective concentration is not above 0.03 µM.

Turning to `CCCN(C)C(=O)c1nc(N)c2c(n1)N(Cc1cccc(CN3CCCC3)c1)CC(=O)N2` [Example 81], the minimal effective concentration is more than 0.03 µM.

Regarding `CCCCNc1nc(N)c2c(n1)N(Cc1ccnc(N3CCOCC3)c1)CC(=O)N2` [Example 78], the minimal effective concentration was more than 0.03 µM.

Take `CCCCOc1nc(N)c2c(n1)N(CCC1CCN(CC3CC3)CC1)CC(=O)N2` [Example 113]: the minimal effective concentration was not above 0.03 µM.

`CC1(COc2nc(N)c3c(n2)N(Cc2cccc(CN4CCCC4)c2)CC(=O)N3)CC1` [Example 6, 4-amino-2-{(1′″-methylcycloprop-1′″-yl)methoxy}-8-[3′-(pyrrolidin-1″-ylmethyl)-benzyl]-5,6,7,8-tetrahydropteridin-6-one]: the minimal effective concentration is more than 0.03 µM.

As for `CCCCOc1nc(N)c2c(n1)N(Cc1cccc(CN3CCC(C(=O)O)CC3)c1)CC(=O)N2` [Example 75], the minimal effective concentration is more than 0.03 µM.

Consider `CCCCOc1nc(N)c2c(n1)N(Cc1cccc(CN3CCC(C(=O)OC)CC3)c1)CC(=O)N2` [Example 54], for which the minimal effective concentration is more than 0.03 µM.

For the compound `CCCCOc1nc(N)c2c(n1)N(Cc1cccc(CN3CCCC3)c1)C1(CC1)C(=O)N2` [Example 3, 4-Amino-2-n-butoxy-7-(1′″,2′″-ethylidene)-8-[3′-(pyrrolidin-1″-ylmethyl)-benzyl]-5,6,7,8-tetrahydropteridine-6-one], the minimal effective concentration was more than 0.03 µM.

As to `Cc1ccc(CN2CC(=O)Nc3c(N)nc(OCC4CCOC4)nc32)cn1` (stereo not drawn) [Example 115], the minimal effective concentration is more than 0.03 µM.

As for `Nc1nc(OCC2CCOCC2)nc2c1NC(=O)CN2Cc1cccc(CN2CCCC2)c1` [Example 30], the minimal effective concentration was not above 0.03 µM.
